Source: patent US10500209B2, “Quinazolinones as bromodomain inhibitors” (Zenith Epigenetics Ltd., priority 2013, dated 2019)

Columns and labels:
human AML MV-4-11 cells = assay: Inhibition of cell proliferation in cancer cell lines (CellTiter Aqueous One); format: cell-based; design: key: Active: Compounds with an IC50 value less than 30 μM were deemed to be active.; Not Active: Compounds with an IC50 value less than 30 μM were deemed to be active; conditions: 72 h
How it was run: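 Exponentially growing MV-4-11 cells (5×10^4/well) were treated immediately with two-fold dilutions of compound from 30 μM to 0.2 μM, in triplicate, for 72 h at 37° C, 5% CO2. Viability was measured by MTS absorbance at 490 nm after 3–4 h. Proliferation relative to DMSO after blank correction gave IC50.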

c-myc in MV4-11 cells = assay: Inhibition of c-myc expression in cancer cell lines (mRNA, real-time PCR); format: cell-based, Human; design: key: Active: Compounds with an IC50 value less than 30 μM were deemed to be active.; Not Active: Compounds with an IC50 value less than 30 μM were deemed to be active; conditions: 3 h
How it was run: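 MV4-11 cells (2.5×10^4) treated with compound or 0.1% DMSO for 3 h at 37 °C. c-myc mRNA measured by RT real-time PCR duplexed with cyclophilin. IC50 from dose–response curve.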

hIL-6 mRNA = assay: Inhibition of hIL-6 mRNA transcription in LPS-stimulated U937 macrophages; format: cell-based, human; design: key: Active: Compounds with an IC50 value less than 30 μM were deemed to be active.; Not Active: Compounds with an IC50 value less than 30 μM were deemed to be active; conditions: U937 cells differentiated with PMA, LPS stimulation, 3 h
Description: In this example, hIL-6 mRNA in tissue culture cells was quantitated to measure the transcriptional inhibition of hIL-6 when treated with a compound of the present disclosure.
A human leukemic monocyte lymphoma cell line (U937) was plated (3.2×10^4 cells per well) in a 96-well plate in 100 μL RPMI-1640 containing 10% FBS and penicillin/streptomycin, and differentiated into macrophages for 3 days in 60 ng/mL PMA ([…]) at 37° C. in 5% CO2 prior to the addition of the compound of interest. The cells were pretreated for 1 h with the test compound prior to stimulation with 1 ug/mL lipopolysaccharide from Escherichia coli. The cells were incubated at 37° C. for 3 h before the cells were harvested. At time of harvest, the spent media was removed from the cells and the cells were rinsed in 200 μL PBS. Cell lysis solution (70 μL) was added the cells in each well and incubated for 5-10 min at room temperature, to allow for complete cell lysis and detachment. mRNA was then prepared using the “mRNA Catcher PLUS plate” (Invitrogen), according to the protocol supplied. After the last wash, as much wash buffer as possible was aspirated without allowing the wells to dry. Elution buffer (E3, 70 μL) was then added to each well. mRNA was then eluted by incubating the mRNA Catcher PLUS plate with Elution Buffer for 5 min at 68° C. and then immediately placing the plate on ice.
(§1) The eluted mRNA isolated was then used in a one-step quantitative real-time PCR reaction, using components of the Ultra Sense Kit together with Applied Biosystems primer-probe mixes. Real-time PCR data was analyzed, normalizing the Ct values for hIL-6 to an internal control, prior to determining the fold induction of each unknown sample, relative to the control.

[1] = biological target: T1, Brd4 bromodomain 1 (BRD4(1)) (Homo sapiens, UniProt O60885); assay: Inhibition of tetra-acetylated histone H4 binding to BET bromodomains (TR-FRET); design: key: Active: Compounds with an IC50 value less than 30 μM were deemed to be active.; Not Active: Compounds with an IC50 value less than 30 μM were deemed to be active; conditions: first bromodomain of Brd4, tetra-acetylated histone H4 peptide
T1 construct: made in house; host or cells: E. coli BL21(DE3)
How it was run: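 N-terminally His-tagged bromodomain (200 nM) from E. coli was mixed with biotinylated tetra-acetylated histone H4 peptide (25-50 nM), Eu-streptavidin and XL665 anti-His, plus compound, in HEPES pH 7.4 buffer with 0.2% DMSO. After 2 h at room temperature, the 665/620 nm TR-FRET decrease gave IC50 from dose-response curves.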

hApoA-1 mRNA = assay: Up-regulation of hApoA-1 mRNA transcription in Huh7 cells; format: cell-based, human; design: key: Active: Compounds with an EC170 value less than 30 μM were deemed to be active; conditions: 48 h treatment
Description: In this example, ApoA-I mRNA in tissue culture cells was quantitated to measure the transcriptional up-regulation of ApoA-I when treated with a compound of the present disclosure.
Huh7 cells (2.5×10^5 per well) were plated in a 96-well plate using 100 μL DMEM per well, (Gibco DMEM supplemented with penicillin/streptomycin and 10% FBS), 24 h before the addition of the compound of interest. After 48 h treatment, the spent media was removed from the Huh-7 cells and placed on ice (for immediate use) or at −80° C. (for future use) with the “LDH cytotoxicity assay Kit II” from Abcam. The cells remaining in the plate were rinsed with 100 μL PBS.
Then 85 μL of cell lysis solution was added to each well and incubated for 5-10 min at room temperature, to allow for complete cell lysis and detachment. mRNA was then prepared using the “mRNA Catcher PLUS plate” from Life Technologies, according to the protocol supplied. After the last wash, as much wash buffer as possible was aspirated without allowing the wells to dry. Elution Buffer (E3, 80 μL) was then added to each well. mRNA was then eluted by incubating the mRNA Catcher PLUS plate with Elution Buffer for 5 min at 68° C., and then 1 min at 4° C. Catcher plates with mRNA eluted were kept on ice for use or stored at −80° C.
The eluted mRNA isolated was then used in a one-step real-time PCR reaction, using components of the Ultra Sense Kit together with Life Technologies primer-probe mixes. Real-time PCR data was analyzed, using the Ct values, to determine the fold induction of each unknown sample, relative to the control (that is, relative to the control for each independent DMSO concentration).
Compounds with an EC170 value less than 30 μM were deemed to be active.

hIL-17 mRNA = assay: Inhibition of hIL-17 mRNA transcription in OKT3-stimulated PBMC; format: cell-based; design: key: Active: Compounds with an IC50 value less than 30 μM were deemed to be active.; Not Active: Compounds with an IC50 value less than 30 μM were deemed to be active; conditions: human peripheral blood mononuclear cells, OKT3 antibody, 6 h
Description: In this example, hIL-17 mRNA in human peripheral blood mononuclear cells was quantitated to measure the transcriptional inhibition of hIL-17 when treated with a compound of the invention.
Human peripheral blood mononuclear cells were plated (2.0×10^5 cells per well) in a 96-well plate in 45 μL OpTimizer T Cell expansion media containing 20 ng/ml IL-2 and penicillin/streptomycin. The cells were treated with the test compound (45 μL at 2x concentration), and then the cells were incubated at 37° C. for 1 h before addition of 10x stock OKT3 antibody at 10 ug/ml in media. Cells were incubated at 37° C. for 6 h before the cells were harvested. At time of harvest, cells were centrifuged (800 rpm, 5 min). Spent media was removed and cell lysis solution (70 μL) was added the cells in each well and incubated for 5-10 min at room temperature, to allow for complete cell lysis and detachment. mRNA was then prepared using the “mRNA Catcher PLUS plate” (Invitrogen), according to the protocol supplied. […]
as §1, with “RT-PCR” for “real-time PCR”, “hIL-17” for “hIL-6”

Compound	Cell Proliferation activity (IC50 < 30 μM) (human AML MV-4-11 cells)	c-myc activity (IC50 < 30 μM) (c-myc in MV4-11 cells)	IL-6 activity (IC50 < 30 μM) (hIL-6 mRNA)	FRET activity BRD4(1) [1]	ApoA-1 activity (EC170 < 30 μM) (hApoA-1 mRNA)	melting point	IL-17 activity (IC50 < 30 μM) (hIL-17 mRNA)
COc1ccc(-c2nc3cc(OC)cc(OC)c3c(=O)[nH]2)c(NC2CCN(C)CC2)c1 [Example 1, 5,7-Dimethoxy-2-(4-methoxy-2-((1-methylpiperidin-4-yl)amino)phenyl)-quinazolin-4(3H)-one]	Active	Active	Active	Active	Active	252 to 253 °C	
COc1cnc(-c2nc3cc(OC)cc(OC)c3c(=O)[nH]2)c(NC2CCN(C(=O)C(C)C)CC2)c1 [Example 32, 2-(3-((1-Isobutyrylpiperidin-4-yl)amino)-5-methoxypyridin-2-yl)-5,7-dimethoxyquinazolin-4(3H)-one]	Active	Active	Active	Active	Active	192 to 193 °C	
COc1cc(OC)c2c(=O)[nH]c(-c3ncccc3NC3CCN(C(=O)C(C)C)CC3)nc2c1 [Example 36, 2-(-((1-Isobutyrylpiperidin-4-yl)amino)pyridin-2-yl)-5,7-dimethoxyquinazolin-4(3H)-one]	Active	Active	Active	Active	Active		
COc1ccc(-c2nc3cc(OC)cc(OC)c3c(=O)[nH]2)c(NCCN2CCN(C)CC2)c1 [Example 25, 5,7-Dimethoxy-2-(4-methoxy-2-((2-(4-methylpiperazin-1-yl)ethyl)amino)phenyl)-quinazolin-4(3H)-one]			Active	Active	Active	230 to 231 °C	
COc1ccc(-c2nc3cc(OC)cc(OC)c3c(=O)[nH]2)c(NCCCNC(C)C)c1 [Example 20, 2-(2-((3-(Isopropylamino)propyl)amino)-4-methoxyphenyl)-5,7-dimethoxyquinazolin-4(3H)-one]	Active	Active	Active	Active	Active	208 to 210 °C	
COc1ccc(-c2nc3cc(OC)cc(OC)c3c(=O)[nH]2)c(NC2CCN(C(=O)C(C)C)CC2)c1 [Example 19, 2-(2-((1-Isobutyrylpiperidin-4-yl)amino)-4-methoxyphenyl)-5,7-dimethoxyquinazolin-4(3H)-one]	Active	Active	Active	Active			Active
